Key:
[1] = tested on: lymphocytes from patients with early stage RA; test: Proliferation of lymphocytes from RA patients exposed to RA susceptibility sequence peptides (stimulation index); format: cell-based, human; details: for response of RA patient blood lymphocytes to wild-type peptide (dnaJp1) relative to response to mutant peptide (dnaJpV): PBL's of RA patients
Excerpt: FIG. 2 quantifies proliferation of cultured lymphocytes from adult RA and juvenile RA (JRA) patients following exposure of the cells to synthetic dnaJp1 (amino acid sequence […]; SEQ. ID. No. 4) or a mutant dnaJ peptide having the amino acid sequence […] (“dnaJpV”; SEQ. ID. No. 5). The control culture tested consisted of lymphocytes obtained from adults without RA (“normals”). The responses shown by bars in the graph of FIG. 2 are expressed in terms of a lymphocyte stimulation index; i.e., (CPM detected in cultures with dnaJ)/(CPM detected in cultures without dnaJ).
(§1) Lymphocytes from patients with early untreated rheumatoid arthritis (RA) were obtained from blood (peripheral blood lymphocytes, or “PBL's”) for from synovial fluids using standard aseptic techniques. The cells were incubated for 7 days with purified recombinant E. coli dnaJ (10 μg/ml, obtained as described in Example I) in RPMI 1640 medium supplemented with 10% prescreened human AB type serum. Lymphocytes from 10 control subjects (i.e., persons without RA) were treated similarly. Proliferation during the last 16 hours of culture was expressed as a stimulation index=cpm in cultures with dnaJ/cpm in cultures without dnaJ.
Lymphocytes from patients with early stage RA were contacted with one of two RA susceptibility sequence peptides according to the protocol described in Example II. The peptides used were either a 15 amino acid synthetic peptide having the wild-type sequence […] or a 15 amino acid synthetic mutant peptide having the sequence […].

[2] = tested on: anti-dnaJ antibodies in sera from patients with early stage RA; test: Inhibition of antibody binding to dnaJ (ELISA, sera preincubated with peptide); parameters: species or system human; details: sera diluted 1:100, preincubated overnight at 4° C. with peptide; % inhibition; FIG. 3
Procedure: FIG. 3 depicts the results of an inhibition study for inhibition of the activity of anti-dnaJ antibodies produced in separate sera samples from 51 early stage RA patients by intact dnaJ. The percent inhibition shown by bars in the graph of FIG. 3 is expressed in terms of the formula: % inhibition=100 I-OD460 with rdnaJ)(OD460 without rdnaJ) The control sera were obtained from humans without RA.
Microtiter plates were coated with recombinant dnaJ (10 μg/ml). Either sera obtained from patients with early stage RA or sera from control subjects were diluted 1:100 in borate buffered saline. Half of each specimen was incubated overnight at 4° C. with the wild-type dnaJ peptide described in Example III. Then the paired serum specimens were added to the dnaJ coated plates.
After 4 hours incubation, antibody binding was detected with alkaline phosphatase labelled goat anti-human IgG; levels of detected antibody binding were determined according to the following formula: % inhibition=100 (1-OD460with wild-type peptide)(OD460without wild-type peptide)

[3] = tested on: purified HLA MHC Class II epitopes; test: ELISA binding of biotinylated dnaJ peptides to immobilized HLA molecules; parameters: species or system human; details: ELISA absorption at 405 nm; FIG. 5
Excerpt: FIG. 5 is a table comparing the binding efficiencies of several dnaJ peptides for purified HLA MHC Class II epitopes. Binding was detected by ELISA between biotinylated dnaJ peptides and immobilized HLA molecules. The results are expressed in the table as absorption units at 405 nm. The peptides tested were: dnaJp1 (SEQ. ID. No. 4), dnaJpV (SEQ. ID. No. 5), dnaJp2 (SEQ. ID. No. 6), S1 (SEQ. ID. No. 7) and S6 (SEQ. ID. No. 8). S1 and […] are synthetic peptides whose amino acid sequence corresponds to the sequence of known HLA DR antigens.

[4] = tested on: lymphocytes from patients with early untreated rheumatoid arthritis; test: Proliferation of lymphocytes from early stage RA patients exposed to rdnaJ (stimulation index); format: cell-based, human; details: rdnaJ 10 μg/ml, 7 days, FIG. 1
Excerpt: FIG. 1 quantifies proliferation of cultured lymphocytes from 22 patients with early, untreated RA (“early stage” RA) following exposure of the cells to intact bacterial dnaJ protein. The responses shown by bars in the graph of FIG. 1 are expressed in terms of a lymphocyte stimulation index; i.e., (CPM detected in cultures with dnaJ)/(CPM detected in cultures without dnaJ). “CPM” refers to counts-per-minute. The control culture tested consisted of lymphocytes obtained from humans without RA.
as §1

Which results are given for QKRAAYDQYGHAAFE (Synthetic dnaJp1)?
response of RA patient PBL's to wild-type peptide relative to response of lymphocytes from control subjects to wild-type peptide ([1]; FIG. 2): approximately 9 times; response of RA patient blood lymphocytes to wild-type peptide (dnaJp1) relative to response to mutant peptide (dnaJpV) ([1]; FIG. 2): ~10 times; response of RA patient blood lymphocytes to wild-type peptide (dnaJp1) relative to response to mutant peptide (dnaJpV) ([1]; FIG. 2, listed as wild-type peptide): more than 5 times; inhibition of antibody binding to rdnaJ in RA sera relative to inhibition in control sera [2]: ~3 times; binding to HLA MHC Class II molecule epitopes relative to human HLA Dw4 peptides (S1 and S6) [3]: ≥ 100 times

B1: rdnaJ: recombinant E. coli dnaJ heat shock protein, expressed and affinity purified, 41 kD (protein, UniProt P08622 2-376, looked up)
Chaperone protein DnaJ: AKQDYYEILGVSKTAEEREIRKAYKRLAMKYHPDRNQGDKEAEAKFKEIKEAYEVLTDSQKRAAYDQYGHAAFEQGGMGGGGFGGGADFSDIFGDVFGDIFGGGRGRQRAARGADLRYNMELTLEEAVRGVTKEIRIPTLEECDVCHGSGAKPGTQPQTCPTCHGSGQVQMRQGFFAVQQTCPHCQGRGTLIKDPCNKCHGHGRVERSKTLSVKIPAGVDTGDRIRLAGEGEAGEHGAPAGDLYVQVQVKQHPIFEREGNNLYCEVPINFAMAALGGEIEVPTLDGRVKLKVPGETQTGKLFRMRGKGVKSVRGGAQGDLLCRVVVETPVGLNERQKQLLQELQESFGGPTGEHNSPRSKSFFDGVKKFFDDLTR
How did the “proliferation response of PBL's relative to response of control subject lymphocytes” value ([4]; PBL's from 14 early stage RA patients) turn out when B1 was run?
The value was “approximately 3.6 times”.

What about the “proliferation response of synovial fluid lymphocytes relative to response of control subject lymphocytes” value ([4]; synovial fluid lymphocytes from 8 early stage RA patients) of the same molecule?
Its value is “approximately 2.3 times”.
